According to publication PMC12718081 (ACS Infectious Diseases, 2025):
Entries after “also recorded” stand apart in the source; their conditions may differ. Like-named read-outs stand apart in the source and are kept apart here.

Columns and labels:
S. mansoni schistosomula = assay: Roboworm high-content screening assay on schistosomula (motility and phenotype scores); format: cell-based, Schistosoma mansoni; conditions: 72 h
Protocol: All PZQ derivatives were synthesized in the racemic form and evaluated as such. The compounds were initially screened at 10 μM against S. mansoni schistosomula using the Roboworm high-content screening assay , and were declared hits or nonhits based on their effect on parasites’ motility and phenotype scores after 72 h of incubation. As none of the compounds were considered hits at this concentration, we performed a titration from 6.25 to 50 μM (Figure S27).
DMSO was included as a negative control. Compounds were considered hits if both their motility and phenotype scores were lower than −0.35 and −0.15, respectively (region delimited by the dashed lines). In red, PZQ analogues selected for further analysis.
For the collection of schistosomula, B. glabrata snails infected with S. mansoni were shed for 2 h under light at 26 °C. Cercariae were collected, mechanically transformed into schistosomula as previously described.
DMSO (0.625%, v/v) was included as a negative control. Z′ values for the assay were calculated to be 0.542 for phenotype and 0.361 for motility. […]
(§1) Auranofin (AUR) was included at 10 µM as positive control. DMSO was included as a negative control. Compounds were considered hits if both their motility and phenotype scores were lower than -0.35 and -0.15, respectively (region delimited by the […]

[1] = test system: adult schistosomes (male and female worms); assay: Adult worm ex vivo high-content image-based motility assay; format: cell-based, Schistosoma mansoni
Protocol: Adult schistosomes’ motility was determined using a high-content assay previously developed by our group, , with images analyzed in CellProfiler software. More details are provided in the Supporting Information.
(§2) Adult worm ex-vivo high-content assay
(§3) “Area” and “False Negative Rate” from the MeasureObjectSizeShape and MeasureObjectOverlap modules, respectively. These measurements were then modeled by a multilevel generalized linear statistical model. The effects of the experimental treatments on […]
(§4) The half-maximal inhibitory
(§5) Windows (GraphPad Software, Boston, MA, USA; www.graphpad.com). […]
with DMSO as a negative control.

Sm.TRPMPZQ (wild-type) = Sm.TRPMPZQ (wild-type) (Schistosoma mansoni, UniProt A0A5K4F0X5); assay: Ca2+ reporter (FLIPR) activation assay, wild-type Sm.TRPMPZQ in HEK293 cells; format: cell-based
Sm.TRPMPZQ (wild-type), sequence (A0A5K4F0X5 entry or part of it): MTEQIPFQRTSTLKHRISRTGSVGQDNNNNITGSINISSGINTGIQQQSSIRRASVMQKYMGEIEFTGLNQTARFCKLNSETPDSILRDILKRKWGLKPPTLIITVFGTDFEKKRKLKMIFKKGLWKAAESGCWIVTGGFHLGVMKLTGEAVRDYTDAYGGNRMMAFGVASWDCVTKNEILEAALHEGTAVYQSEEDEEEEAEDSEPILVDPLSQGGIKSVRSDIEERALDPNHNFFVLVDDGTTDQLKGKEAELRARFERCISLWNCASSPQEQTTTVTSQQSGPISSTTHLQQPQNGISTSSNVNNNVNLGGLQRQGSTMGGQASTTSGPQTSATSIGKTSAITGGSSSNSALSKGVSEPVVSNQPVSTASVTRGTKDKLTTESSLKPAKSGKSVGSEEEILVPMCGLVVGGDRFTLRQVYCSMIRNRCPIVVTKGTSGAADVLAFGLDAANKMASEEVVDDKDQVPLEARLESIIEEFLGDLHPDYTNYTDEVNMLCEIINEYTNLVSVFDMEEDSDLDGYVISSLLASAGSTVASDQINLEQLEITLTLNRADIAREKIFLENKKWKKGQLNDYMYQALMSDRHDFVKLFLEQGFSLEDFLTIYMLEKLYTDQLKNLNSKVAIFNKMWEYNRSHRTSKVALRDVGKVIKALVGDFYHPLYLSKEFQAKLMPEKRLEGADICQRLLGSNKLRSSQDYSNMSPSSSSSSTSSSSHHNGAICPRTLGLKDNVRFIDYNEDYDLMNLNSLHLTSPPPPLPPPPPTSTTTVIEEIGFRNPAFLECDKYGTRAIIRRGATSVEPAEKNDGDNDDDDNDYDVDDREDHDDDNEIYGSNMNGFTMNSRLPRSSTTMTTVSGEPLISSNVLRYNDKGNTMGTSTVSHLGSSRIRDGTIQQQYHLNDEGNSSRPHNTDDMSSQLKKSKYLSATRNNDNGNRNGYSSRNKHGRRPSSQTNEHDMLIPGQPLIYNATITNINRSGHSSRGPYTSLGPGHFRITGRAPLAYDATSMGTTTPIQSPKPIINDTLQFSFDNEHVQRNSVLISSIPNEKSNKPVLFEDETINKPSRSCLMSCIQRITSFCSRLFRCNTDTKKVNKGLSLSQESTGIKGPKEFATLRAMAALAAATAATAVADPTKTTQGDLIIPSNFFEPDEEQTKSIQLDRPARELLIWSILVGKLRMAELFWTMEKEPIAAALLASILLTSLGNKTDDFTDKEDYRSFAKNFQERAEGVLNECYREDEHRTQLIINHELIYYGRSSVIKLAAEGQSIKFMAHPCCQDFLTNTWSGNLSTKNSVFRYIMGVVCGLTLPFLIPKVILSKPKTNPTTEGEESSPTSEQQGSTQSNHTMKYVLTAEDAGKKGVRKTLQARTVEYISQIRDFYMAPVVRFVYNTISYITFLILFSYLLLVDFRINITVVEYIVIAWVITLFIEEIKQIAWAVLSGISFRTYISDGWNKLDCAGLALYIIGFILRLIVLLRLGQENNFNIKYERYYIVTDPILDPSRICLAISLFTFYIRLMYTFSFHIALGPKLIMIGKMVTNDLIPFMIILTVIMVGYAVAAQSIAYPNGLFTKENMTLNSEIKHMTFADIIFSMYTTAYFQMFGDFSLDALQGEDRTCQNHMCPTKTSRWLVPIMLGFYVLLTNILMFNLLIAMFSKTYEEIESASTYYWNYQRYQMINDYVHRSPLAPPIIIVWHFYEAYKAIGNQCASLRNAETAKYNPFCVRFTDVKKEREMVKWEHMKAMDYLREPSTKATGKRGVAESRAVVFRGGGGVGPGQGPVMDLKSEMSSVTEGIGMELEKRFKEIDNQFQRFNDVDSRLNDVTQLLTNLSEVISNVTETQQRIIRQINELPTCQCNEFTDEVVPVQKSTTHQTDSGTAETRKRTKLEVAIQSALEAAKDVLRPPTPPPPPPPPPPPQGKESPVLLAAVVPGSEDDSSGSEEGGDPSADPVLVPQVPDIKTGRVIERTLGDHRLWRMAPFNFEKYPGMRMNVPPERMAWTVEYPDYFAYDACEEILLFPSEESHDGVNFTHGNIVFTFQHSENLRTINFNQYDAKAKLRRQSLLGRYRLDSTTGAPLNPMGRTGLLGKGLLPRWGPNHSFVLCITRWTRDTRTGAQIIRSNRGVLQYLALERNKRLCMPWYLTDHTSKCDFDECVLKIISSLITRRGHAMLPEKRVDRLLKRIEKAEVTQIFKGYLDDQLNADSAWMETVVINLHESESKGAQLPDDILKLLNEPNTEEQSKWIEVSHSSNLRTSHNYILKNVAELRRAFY
Protocol: The Ca^2+ reporter assay was performed using a Fluorescence Imaging Plate Reader (FLIPR) system, as described in the Supporting Information. […]
as §4, §5
(§6) with DMSO as a negative control. […]
(§7) reader. […] The fluorescence
(§8) Untransfected HEK293 cells were used as a control.
(§9) 10% fetal bovine serum (FBS). […]
(§10) atmosphere containing 5% CO₂. Following incubation, the growth medium was removed and […]
(§11) buffer containing 2.5 mM probenecid in HBSS (with Ca²⁺ and Mg²⁺), 20 mM HEPES, 0.3% BSA (Sigma, A7030), and 0.03% L-ascorbic acid (Sigma). Cells were incubated for 40 minutes at 37 °C and subsequently for 20 minutes at room temperature. […]
prepared in assay buffer without dye and probenecid and dispensed into separate flat-bottom 384-well plates. Calcium flux measurements were performed at room temperature using a […]
(§12) instrument (Molecular Devices). Baseline fluorescence was recorded for 20 seconds, followed by the addition of 5 µL of each drug solution, after which fluorescence was measured continuously for 250 seconds. […]

Eg.TRPMPZQ = Eg.TRPMPZQ (Echinococcus granulosus, UniProt W6UVV9); assay: cell-based; conditions: HEK293, Ca2+ reporter, mean ± standard deviation; read-out: Bmax, Eg.TRPMPZQ activation
Eg.TRPMPZQ, sequence (W6UVV9 entry or part of it): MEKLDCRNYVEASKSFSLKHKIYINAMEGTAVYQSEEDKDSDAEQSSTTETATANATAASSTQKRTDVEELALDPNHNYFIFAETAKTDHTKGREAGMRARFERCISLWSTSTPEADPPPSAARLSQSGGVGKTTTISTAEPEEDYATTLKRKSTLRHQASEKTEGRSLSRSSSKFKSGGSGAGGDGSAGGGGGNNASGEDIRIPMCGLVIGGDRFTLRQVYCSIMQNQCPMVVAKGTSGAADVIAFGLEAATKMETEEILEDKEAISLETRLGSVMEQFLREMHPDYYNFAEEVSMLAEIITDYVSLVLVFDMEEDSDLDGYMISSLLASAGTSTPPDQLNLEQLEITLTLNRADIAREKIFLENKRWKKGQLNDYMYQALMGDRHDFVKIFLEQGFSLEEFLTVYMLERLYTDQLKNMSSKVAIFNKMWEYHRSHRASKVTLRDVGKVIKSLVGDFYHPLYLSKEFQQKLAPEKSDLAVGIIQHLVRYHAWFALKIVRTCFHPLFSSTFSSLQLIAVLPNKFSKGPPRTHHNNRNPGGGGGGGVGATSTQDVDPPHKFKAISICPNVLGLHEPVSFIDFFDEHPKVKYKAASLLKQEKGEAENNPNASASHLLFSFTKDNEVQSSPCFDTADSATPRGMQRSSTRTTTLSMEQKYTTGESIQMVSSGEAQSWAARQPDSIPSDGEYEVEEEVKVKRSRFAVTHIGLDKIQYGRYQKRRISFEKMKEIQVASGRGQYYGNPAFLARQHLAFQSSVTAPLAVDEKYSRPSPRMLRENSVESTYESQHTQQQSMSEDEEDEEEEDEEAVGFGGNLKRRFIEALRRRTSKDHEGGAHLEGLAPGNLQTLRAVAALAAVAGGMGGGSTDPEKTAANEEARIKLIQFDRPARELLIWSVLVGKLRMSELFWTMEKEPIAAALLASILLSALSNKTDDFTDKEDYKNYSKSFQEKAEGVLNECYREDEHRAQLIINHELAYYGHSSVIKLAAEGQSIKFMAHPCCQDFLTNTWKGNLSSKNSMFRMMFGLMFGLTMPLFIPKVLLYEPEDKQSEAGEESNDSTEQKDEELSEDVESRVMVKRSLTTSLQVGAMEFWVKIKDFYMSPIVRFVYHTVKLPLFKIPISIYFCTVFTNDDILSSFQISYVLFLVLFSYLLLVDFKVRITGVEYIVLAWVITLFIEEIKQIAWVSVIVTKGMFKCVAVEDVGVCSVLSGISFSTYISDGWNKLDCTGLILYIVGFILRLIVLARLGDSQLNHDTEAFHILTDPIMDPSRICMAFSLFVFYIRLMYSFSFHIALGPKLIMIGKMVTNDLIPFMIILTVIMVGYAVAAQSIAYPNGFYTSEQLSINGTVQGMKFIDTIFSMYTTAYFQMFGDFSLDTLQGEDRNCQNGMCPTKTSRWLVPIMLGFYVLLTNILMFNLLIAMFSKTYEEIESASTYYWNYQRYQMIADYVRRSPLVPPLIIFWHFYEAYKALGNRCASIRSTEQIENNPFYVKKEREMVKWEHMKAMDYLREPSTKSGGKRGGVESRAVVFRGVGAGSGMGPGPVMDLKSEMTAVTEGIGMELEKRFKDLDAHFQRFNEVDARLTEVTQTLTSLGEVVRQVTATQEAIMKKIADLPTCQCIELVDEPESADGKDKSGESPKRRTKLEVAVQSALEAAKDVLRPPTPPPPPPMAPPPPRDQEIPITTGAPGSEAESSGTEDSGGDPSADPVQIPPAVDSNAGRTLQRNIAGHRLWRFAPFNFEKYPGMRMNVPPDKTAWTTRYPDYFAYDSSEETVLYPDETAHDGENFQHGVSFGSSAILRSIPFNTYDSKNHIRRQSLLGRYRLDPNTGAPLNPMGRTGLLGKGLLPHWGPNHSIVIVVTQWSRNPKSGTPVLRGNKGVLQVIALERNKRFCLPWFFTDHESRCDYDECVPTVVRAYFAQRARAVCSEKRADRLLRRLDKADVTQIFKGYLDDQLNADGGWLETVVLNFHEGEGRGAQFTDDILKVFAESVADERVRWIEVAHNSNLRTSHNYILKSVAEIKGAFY

Sm.TRPMPZQ L1515A mutant = assay: Ca2+ reporter activation assay, Sm.TRPMPZQ point mutant L1515A; format: cell-based, Schistosoma mansoni; conditions: 100 μM
Protocol: This trend likely indicates a similar binding mode.
The colored cells represent the range of EC50 values for each compound based on their ability to activate the channel.
(§13) The Ca^2+ reporter assay was performed using a Fluorescence Imaging Plate Reader (FLIPR) system, as described in the Supporting Information.
as §2, §3, §4, §5, §6, §7, §8, §9, §10, §11, §12

Sm.TRPMPZQ = assay: Ca2+ reporter assay in antagonist mode (block of PZQ activation of Sm.TRPMPZQ); format: cell-based, Schistosoma mansoni; conditions: preincubation 1 nM-100 μM for 10 min, data not shown
Protocol: as §13, §2, §3, §4, §5, §6, §7, §8, §9, §10
buffer containing 2.5 mM probenecid in HBSS (with Ca²⁺ and Mg²⁺), 20 mM HEPES, 0.3% BSA (Sigma, A7030), and 0.03% L-ascorbic acid (Sigma). Cells were incubated for 40 minutes at 37 °C and subsequently for 20 minutes at room temperature. A total of seven PZQ derivatives were tested, using racemic PZQ included as a positive control on each assay plate. Drug dilutions were prepared in assay buffer without dye and probenecid and dispensed into separate flat-bottom 384-well plates. Calcium flux measurements were performed at room temperature using a […]
as §12
as §1, with “schistosomula after 72h of incubation using the Roboworm high-content screening assay. Auranofin” for “Auranofin”
(1 picture or pasted object on this page, not shown here)

[2] = test system: juvenile schistosomes (21 days p.i.); assay: XTT juvenile viability assay; format: cell-based, Schistosoma mansoni; conditions: 48 h
Fh.TRPMPZQ = test system: Fh.TRPMPZQ; set-up: method as in number not given; conditions: background statement; ref number not given; cited from earlier work
Sm.TRPMMCLZ = test system: Sm.TRPMMCLZ; set-up: method as in number not given; conditions: background statement; ref number not given; cited from earlier work
S. mansoni = test system: S. mansoni; set-up: method as in numbers not given; conditions: ref numbers not given, cited from earlier work
juvenile schistosomes = assay: Microscopy analysis of juvenile morphology and motility (viability score 0-3); conditions: 72 h

O=C(C1CCCCC1)N1CC(=O)N2CCc3ccc(-n4cc(C5(O)CCCCC5)nn4)cc3C2C1 (stereo not drawn) [Compound 5d]
hit classification (motility and phenotype scores) (S. mansoni schistosomula; 50 μM, hit if motility < -0.35 and phenotype < -0.15): inactive | activity against adult worms ([1]; data not shown): inactive | Bmax, wild-type Sm.TRPMPZQ activation (Sm.TRPMPZQ (wild-type)): No activity | EC50 for wild-type Sm.TRPMPZQ activation (Sm.TRPMPZQ (wild-type); 0.001 to 100 μM): failed to activate; also recorded: No activity | Emax (Eg.TRPMPZQ): 94 ± 4.08% | activation of Sm.TRPMPZQ mutant form L1515A (Sm.TRPMPZQ L1515A mutant): activated | block of PZQ activation of Sm.TRPMPZQ (antagonist mode) (Sm.TRPMPZQ): failed to impact subsequent responses to PZQ

O=C(C1CCCCC1)N1CC(=O)N2CCc3ccccc3C2C1 (stereo not drawn) [PZQ, Praziquantel, reference compound]
hit classification (motility and phenotype scores) (S. mansoni schistosomula; 6.25 μM): not classified as a hit | parasite metabolic activity compared to the DMSO control group (XTT) ([2]; 100 μM): significantly decreased | viability at 100 µM ([2]; Schistosoma mansoni, mean ± SD, read-out: juvenile worm viability (XTT, % residual viability)): 71.5% | EC50 ([1]; Schistosoma mansoni, 0 h, male adult worms, 0 h (immediately after addition), single experiment or geometric mean, read-out: Male worm motility inhibition (EC50)): 280 nM | EC50 ([1]; Schistosoma mansoni, 0 h, male, 0 h, individual experiments, read-out: Male worm motility inhibition (EC50), values of independent experiments): 300 nM | EC50 ([1]; Schistosoma mansoni, 24 h, male adult worms, 24 h, single experiment or geometric mean, read-out: Male worm motility inhibition (EC50)): 250 nM | EC50 ([1]; Schistosoma mansoni, 24 h, male, 24 h, individual experiments, read-out: Male worm motility inhibition (EC50), values of independent experiments): 220 nM | EC50 ([1]; Schistosoma mansoni, 48 h, male adult worms, 48 h, single experiment or geometric mean, read-out: Male worm motility inhibition (EC50)): 250 nM | EC50 ([1]; Schistosoma mansoni, 48 h, male, 48 h, individual experiments, read-out: Male worm motility inhibition (EC50), values of independent experiments): 270 nM | EC50 ([1]; Schistosoma mansoni, 72 h, male adult worms, 72 h, single experiment or geometric mean, read-out: Male worm motility inhibition (EC50)): 160 nM | EC50 ([1]; Schistosoma mansoni, 72 h, male, 72 h, individual experiments, read-out: Male worm motility inhibition (EC50), values of independent experiments): 160 nM | EC50 ([1]; Schistosoma mansoni, male, 0-72 h, read-out: EC50 against male adult worms (motility), span over incubation times): ~200 nM | EC50 ([1]; male, 48 h, individual experiments, listed as PZQ (1), read-out: Male worm motility inhibition (EC50), values of independent experiments): 240 nM | EC50 ([1]; male, 72 h, individual experiments, listed as PZQ (1), read-out: Male worm motility inhibition (EC50), values of independent experiments): 170 nM | activation of Fh.TRPMPZQ (Fh.TRPMPZQ): does not activate | activation of Sm.TRPMMCLZ (Sm.TRPMMCLZ): does not activate | in vitro potency against adult worms (S. mansoni; S. mansoni adults): 160 to 750 nM | in vitro potency against schistosomula (S. mansoni; S. mansoni schistosomula): 1300 to 4800 nM | number of juvenile worms with viability score 0 (juvenile schistosomes; 10 μM, Table S1): 56 | number of juvenile worms with viability score 1 (juvenile schistosomes; 10 μM, Table S1): 12 | number of juvenile worms with viability score 2 (juvenile schistosomes; 10 μM, Table S1): 27 | number of juvenile worms with viability score 3 (juvenile schistosomes; 10 μM, Table S1): 14 | viability at 10 µM (juvenile schistosomes; Schistosoma mansoni, read-out: Relative frequency of viability score 3): 12.8%
